Assay: in vitro
Settings: human, hela cells, % viability

Row | Structure (SMILES) | viability at 28.5 h, 10 µM [%]
1 | C=CCn1c(Cc2csc(NC(=O)Cc3cc(OC)c(OC)c(OC)c3)n2)n[nH]c1=S [CBK295311] | 87.1
2 | O=c1[nH]c2ccc(NS(=O)(=O)c3ccc4c(c3)OCCCO4)cc2[nH]1 [CBK295315] | 87.7
3 | O=[N+]([O-])c1ccc(NC(c2ccccc2)C2CC2)nc1 (centres unmarked) [CBK295317] | 96.6
4 | C=CCn1c(Cc2csc(NC(=O)c3cnc(C)cn3)n2)n[nH]c1=S [CBK295319] | 90.4
5 | O=C(Cn1nc(C(=O)O)c2ccccc2c1=O)NCc1ccc(Cl)cc1Cl [CBK295320] | 85.4
6 | COc1ccc(NC(=O)C(C)n2nc(C(=O)O)c3ccccc3c2=O)cc1 (centres unmarked) [CBK295322] | 107
7 | O=C(NCc1nc2ccccc2s1)c1ccc2c(c1)OCCO2 [CBK295325] | 107
8 | Cc1ccc(C(=O)Nc2nc(C)c(-c3n[nH]c(=S)n3C)s2)cn1 [CBK295327] | 91.8
9 | C=CCn1c(Cc2csc(NC(=O)c3cc4ccccc4o3)n2)n[nH]c1=S [CBK295329] | 104
10 | COc1cc2c(cc1OC)CN(C(=O)c1ccc3[nH]cnc3c1)CC2 [CBK295331] | 52.8
11 | CC1CCN(S(=O)(=O)c2ccc(NC(=O)C3=COCCO3)cc2)CC1 [CBK295332] | 102
12 | CCc1ccc(CN(C)C(=O)COC(=O)c2cc(-c3ccccc3)nc3onc(C)c23)cc1 [CBK295334] | 89.5
13 | Cc1nc(NC(=O)c2cccc(NC(=O)C3CCCO3)c2)sc1-c1n[nH]c(=S)n1C (centres unmarked) [CBK295341] | 86.9
14 | COc1ccc(-c2n[nH]c(=S)n2CC(=O)Nc2ccc(NC(=O)CC(C)C)cc2)cc1 [CBK295342] | 100
15 | Cc1cc(NS(=O)(=O)c2ccc(Oc3ccc(-c4ccccc4)cc3)nc2)no1 [CBK295343] | 90.8
16 | Cc1ccc(C(CC(=O)O)NC(=O)c2ccc(S(=O)(=O)N3CCCC(C)C3)cc2)cc1 (centres unmarked) [CBK295345] | 95.7
17 | O=C(c1ccc2[nH]nnc2c1)N1CCN(S(=O)(=O)Cc2ccccc2)CC1 [CBK295346] | 79.3
18 | O=C(CCc1nc(O)c2c3c(sc2n1)CCCC3)NCC(=O)Nc1ccccc1Br [CBK295348] | 101
19 | Nc1ncccc1C(=O)OCc1ccc(-c2ccccc2)cc1 [CBK295353] | 94.2
20 | COC(=O)C1=C(C)N(c2ccc(C(=O)O)cc2)C(=O)NC1c1cccc(OC)c1OC (centres unmarked) [CBK295355] | 112
21 | CCCCn1c(SCc2nc(-c3cccc(Cl)c3)no2)n[nH]c1=O [CBK295356] | 116

Row | Structure (SMILES) | viability at 28.5 h, 10 µM [%]
22 | C=CCn1c(Cc2csc(NC(=O)c3cc(C)cc(C)c3)n2)n[nH]c1=S [CBK295358] | 77
23 | C=CCn1c(Cc2csc(NC(=O)Cc3ccc(Cl)cc3)n2)n[nH]c1=S [CBK295359] | 96.3
24 | Cc1noc(C)c1C(=O)N(C)CC(=O)Nc1ccc(Cl)c(C(F)(F)F)c1 [CBK295363] | 95.7
25 | Nc1ncnc2sc3c(c12)CCN(C(=O)c1ccc2nccnc2c1)C3 [CBK295588] | 102
26 | Cc1cc(-n2c(C)cc(C(=O)CSc3n[nH]c(=O)n3CC3CCCO3)c2C)no1 (centres unmarked) [CBK295589] | 112
27 | CN(C(=O)COC(=O)c1cc(-c2ccco2)nc2ccccc12)C1(C#N)CCCCC1 [CBK295591] | 93.2
28 | O=c1[nH]nc(SCCCOc2ccc(Cl)cc2)n1C1CC1 [CBK295597] | 115
29 | Cc1cccc(OCCNC(=O)CSc2n[nH]c(=O)n2C2CC2)c1 [CBK295599] | 94.2
30 | O=C(CNC(=O)C1CC=CCC1C(=O)O)Nc1ccc(N2CCCCCC2)cc1 (centres unmarked) [CBK295603] | 90.8
31 | Cc1c(C=Cc2cc(C(=O)O)c3ccccc3n2)cc(C#N)n1C [CBK295604] | 104
32 | O=C(Nc1ccnn1Cc1cccs1)c1cc(=O)[nH]c2ccccc12 [CBK295606] | 102
33 | Cc1cc(C(=O)Nc2nnc(Cc3ccccc3)s2)c2ccccc2n1 [CBK295607] | 93.3
34 | COc1ccc(N)cc1OCc1cn2ccccc2n1 [CBK295609] | 57.2
35 | Cc1c(C(=O)O)sc2nc(C=Cc3cc([N+](=O)[O-])ccc3Cl)[nH]c(=O)c12 [CBK295613] | 121
36 | COc1ccc(C(=O)C=c2[nH]c(=O)c(=Cc3ccc(C(=O)O)cc3)s2)cc1 [CBK295614] | 99.6
37 | CCCn1c(SCC(=O)Nc2scc(CC(C)C)c2C(=O)OCC)n[nH]c1=O [CBK295615] | 98.1
38 | O=C(O)CCc1ccc(S(=O)(=O)Nc2ccccc2Cc2ccccc2)cc1 [CBK295616] | 99.6
39 | Cc1nc2ccc(C(=O)c3ccccc3O)cn2c(=O)c1CCC(=O)O [CBK295618] | 94.5
40 | Cc1c(C(=O)O)sc2nc3c(Cl)cc(C(=O)c4ccccc4O)cn3c(=O)c12 [CBK295619] | 98.5
41 | O=C(CSc1n[nH]c(=O)n1C1CC1)NCCCSc1ccccc1 [CBK295620] | 104
42 | O=C(c1ccc(OC(F)F)cc1)N1CCCc2cc(S(=O)(=O)N3CCCCC3)ccc21 [CBK295621] | 118

Row | Structure (SMILES) | viability at 28.5 h, 10 µM [%]
43 | CCCn1c(NC(=O)C2CCCN2S(=O)(=O)CC)nc2ccccc21 (centres unmarked) [CBK295624] | 96.8
44 | O=C(O)c1ccc2c(c1)CCN2S(=O)(=O)c1ccc(S(=O)(=O)N2CCOCC2)cc1 [CBK295625] | 97.1
45 | Cc1cccc(C=C(Cl)c2nc3sc(C(=O)O)c(C)c3c(=O)[nH]2)c1 [CBK295626] | 91.6
46 | Cc1nc2ccccc2c(C)c1C(=O)OCc1nc(N)nc(N(C)C)n1 [CBK295627] | 70.6
47 | CCCCCC(=O)Nc1ccc(C(=O)Cn2nc(C(=O)O)c3ccccc3c2=O)cc1 [CBK295628] | 104
48 | CCCc1ccc(S(=O)(=O)N2CCN(CC(=O)Nc3cc(C(C)C)no3)CC2)cc1 [CBK295629] | 114
49 | COc1ccc(-c2n[nH]c(=S)n2CCC(=O)NCCc2cc(C)n(-c3ccccc3)c2C)cc1 [CBK295632] | 97.6
50 | Cc1ccc(C(N)=O)c(OCC(=O)N2c3ccccc3CCC2C)c1 (centres unmarked) [CBK295633] | 93.8
51 | CC1Oc2ccccc2OC1C(=O)Nc1nnc(Cc2ccccc2)s1 (centres unmarked) [CBK295634] | 90.5
52 | CC(C)Cn1c(-c2ccc(F)cc2)cnc1SC(C)C(=O)NC(N)=O (centres unmarked) [CBK295635] | 91.9
53 | COc1ccc(Oc2ccc(C=Cc3nc4sc(C(=O)O)c(C)c4c(=O)[nH]3)cc2[N+](=O)[O-])cc1 [CBK295637] | 112
54 | Cc1ccc(C=C(c2ccccc2)c2nc3sc(C(=O)O)c(C)c3c(=O)[nH]2)s1 [CBK295638] | 100
55 | CC(C)(C)NC(=O)CN1CCN(C(=O)CSc2n[nH]c(=O)n2C2CC2)CC1 [CBK295641] | 94.5
56 | O=c1c2ccsc2ncn1Cc1nnc(-c2ccc(Br)o2)o1 [CBK295642] | 88.7
57 | Cc1cc(C(=O)COc2cccc(-n3cnnn3)c2)c(C)n1C(C)c1ccccc1 (centres unmarked) [CBK295643] | 70.2
58 | Cc1ccc(S(=O)(=O)N2CCC(C(=O)NC3(C(=O)O)CCCCC3)CC2)cc1 [CBK295644] | 109
59 | Oc1ccc(CN2CCN(Cc3ccc(Br)s3)CC2)c2cccnc12 [CBK295645] | 89.5
60 | COc1ccc(S(=O)(=O)N2CCC(C(=O)NC3(C(=O)O)CCCCC3)CC2)cc1OC [CBK295646] | 95.5
61 | O=C(O)CCc1ccc(S(=O)(=O)Nc2ccc(N3CCCC3=O)cc2)cc1 [CBK295647] | 106
62 | CCCn1c(SCC(=O)Nc2cc(C(C)(C)C)no2)n[nH]c1=O [CBK295648] | 104
63 | CC(C)CCC(C)NC(=O)c1ccc(Oc2ccc(F)cc2)cc1 (centres unmarked) [CBK295650] | 88.3

Row | Structure (SMILES) | viability at 28.5 h, 10 µM [%]
64 | Cc1c(-n2nnnc2SC(C)c2ccccc2)c(=O)n(-c2ccccc2)n1C (centres unmarked) [CBK295651] | 92.9
65 | CCC(C)NC(=O)c1ccccc1NS(=O)(=O)c1cc(C(=O)O)cs1 (centres unmarked) [CBK295652] | 108
66 | CC(C)(C)C(=O)NCc1ccc(C(=O)CSc2n[nH]c(=O)n2C2CC2)s1 [CBK295653] | 111
67 | O=C1NC(=O)C(CC(=O)N2CCN(Cc3nc4ccccc4s3)CC2)S1 (centres unmarked) [CBK295654] | 98.3
68 | O=C(O)c1csc(S(=O)(=O)Nc2ccccc2C(=O)Nc2ccc3c(c2)OCO3)c1 [CBK295655] | 102
69 | CCc1ccc(-c2noc(CSc3n[nH]c(=O)n3CCCOC)n2)cc1 [CBK295656] | 95.1
70 | O=C(c1ccc(Cl)cc1)c1ccc(OCC(=O)N2CCN(C(=O)c3ccco3)CC2)cc1 [CBK295658] | 89.2
71 | O=C(CSc1nnnn1-c1ccc(O)cc1)NC1CCCC1 [CBK295659] | 90.6
72 | CC(NC(=O)c1cn(-c2ccccc2)nc1-c1cccnc1)c1ccccn1 (centres unmarked) [CBK295660] | 105
73 | Cc1cc(C(=O)CN(C)S(=O)(=O)c2ccc(Cl)c(Cl)c2)c(C)n1C [CBK295661] | 102
74 | O=C(Nc1ccccc1C(=O)N1CCCC1)c1cc(=O)[nH]c2ccccc12 [CBK295664] | 99.2
75 | CCOc1ccc(NC(=O)C2CCC(C)(C(=O)O)C2(C)C)cc1 (centres unmarked) [CBK295665] | 106
76 | Cc1ccc(-c2n[nH]c(=S)n2CCC(=O)NC(C)c2ccc3c(c2)CCCC3)cc1 (centres unmarked) [CBK295666] | 90.1
77 | CN(C)c1ccc(C=C2CCCC3C2=NN(C(=O)CCC(=O)O)C3c2ccc(N(C)C)cc2)cc1 (centres unmarked) [CBK296065] | 86.8
78 | O=C(Cn1nnc2ccccc21)Nc1ccc(Cl)cn1 [CBK296068] | 97.9
79 | COc1ccc(C=C2CCCC3C2=NN(C(=O)CCC(=O)O)C3c2ccc(OC)c(OC)c2)cc1OC (centres unmarked) [CBK296070] | 107
80 | O=C(O)c1ccc(Nc2nc3ccccc3nc2NS(=O)(=O)c2ccc(Cl)cc2)cc1 [CBK296072] | 98.5
81 | O=C(O)CN1C(=O)C(=Cc2ccc(-c3ccc(Br)cc3)o2)SC1=S [CBK296075] | 92.2
82 | COc1ccc(-c2csc(NC(=O)c3ccccc3-c3ccccc3C(=O)O)n2)cc1 [CBK296076] | 88.6
83 | O=C(O)c1cc(NS(=O)(=O)c2ccc([N+](=O)[O-])cc2)ccc1O [CBK296077] | 110

From publication PMC12040169 (PLOS Biology, 2025)
